A short description of this assay: Tasting of a sample of the purified compound (taste perceived, sweetness relative to sucrose). The note with it: for sweetness relative to sucrose: tasted at 500 ppm in a water base, approximate. From the text: The sweetness intensity perceived was weaker than the sweetness intensity perceived with mogroside V. However, the perception of licorice and lingering profile of isomogroside IVe was weaker than that of mogroside V (see table on following page).

Where [1] appears, read: tasted at a concentration of 250 ppm.
Where [2] appears, read: tasted at a concentration of 500 ppm in a water base.

On to `C[C@H](CC[C@@H](O[C@@H]1O[C@H](CO[C@@H]2O[C@H](CO)[C@@H](O)[C@H](O)[C@H]2O)[C@@H](O)[C@H](O)[C@H]1O[C@@H]1O[C@H](CO)[C@@H](O)[C@H](O)[C@H]1O)C(C)(C)O)[C@H]1CC[C@@]2(C)[C@@H]3CC=C4[C@@H](CC[C@H](O[C@@H]5O[C@H](CO[C@@H]6O[C@H](CO)[C@@H](O)[C@H](O)[C@H]6O)[C@@H](O)[C@H](O)[C@H]5O[C@@H]5O[C@H](CO)[C@@H](O)[C@H](O)[C@H]5O)C4(C)C)[C@]3(C)[C@H](O)C[C@]12C` (stereo in doubt) [Compound 14a, (1S,4R,9beta,11beta,24R)-1-{[beta-D-glucopyranosyl-(1→2)-[beta-D-glucopyranosyl-(1→6)]-beta-D-glucopyranosyl]oxy}-11,25-dihydroxy-9,10,14-trimethyl-4,9-cyclo-9,10-secocholest-5-en-24-yl beta-D-glucopyranosyl-(1→2)-[beta-D-glucopyranosyl-(1→6)]-beta-D-glucopyranoside], for which, under setting [1], the taste perceived result was “No taste”.

Consider `C[C@H](C(O)C[C@@H](O[C@@H]1O[C@H](CO[C@@H]2O[C@H](CO)[C@@H](O)[C@H](O)[C@H]2O)[C@@H](O)[C@H](O)[C@H]1O)C(C)(C)O)[C@H]1CC[C@@]2(C)[C@@H]3CC=C4[C@@H](CC[C@H](O[C@@H]5O[C@H](CO[C@@H]6O[C@H](CO)[C@@H](O)[C@H](O)[C@H]6O)[C@@H](O)[C@H](O)[C@H]5O)C4(C)C)[C@]3(C)[C@H](O)C[C@]12C` (stereo partly drawn) [Compound 1a, (1S,4R,9beta,11alpha,24R)-1-{[6-O-(beta-D-glucopyranosyl)-beta-D-glucopyranosyl]oxy}-11,22,25-trihydroxy-9,10,14-trimethyl-4,9-cyclo-9,10-secocholest-5-en-24-yl 6-O-beta-D-glucopyranosyl-beta-D-glucopyranoside], for which the taste perceived entry under setting [1] is listed as “No taste”.

`C[C@H](C(O)C[C@@H](O[C@@H]1O[C@H](CO[C@@H]2O[C@H](CO)[C@@H](O)[C@H](O)[C@H]2O)[C@@H](O)[C@H](O)[C@H]1O)C(C)(C)O)[C@H]1CC[C@@]2(C)[C@@H]3CC=C4[C@@H](CC[C@H](O[C@@H]5O[C@H](CO)[C@@H](O)[C@H](O)[C@H]5O)C4(C)C)[C@]3(C)[C@H](O)C[C@]12C` (stereo partly drawn) [Compound 2a, (1S,4R,9beta,11alpha,24R)-1-(beta-D-glucopyranosyloxy)-11,22,25-trihydroxy-9,10,14-trimethyl-4,9-cyclo-9,10-secocholest-5-en-24-yl 6-O-beta-D-glucopyranosyl-beta-D-glucopyranoside]: the “sweetness relative to sucrose” value is 20-50 times sweeter than sucrose. Also, the taste perceived result under setting [2] is on record as “weak sweet taste”.

With `C[C@H](C(O)C[C@@H](O[C@@H]1O[C@H](CO[C@@H]2O[C@H](CO)[C@@H](O)[C@H](O)[C@H]2O)[C@@H](O)[C@H](O)[C@H]1O)C(C)(C)O)[C@H]1CC[C@@]2(C)[C@@H]3CC=C4[C@@H](CC[C@H](O[C@@H]5O[C@H](CO)[C@@H](O)[C@H](O)[C@H]5O)C4(C)C)[C@]3(C)[C@@H](O)C[C@]12C` (stereo partly drawn) [Compound 2b, (1S,4R,9beta,11beta,24R)-1-(beta-D-glucopyranosyloxy)-11,22,25-trihydroxy-9,10,14-trimethyl-4,9-cyclo-9,10-secocholest-5-en-24-yl 6-O-beta-D-glucopyranosyl-beta-D-glucopyranoside], the taste perceived result under setting [1] was “No taste”.

`C[C@H](CC[C@@H](O[C@@H]1O[C@H](CO[C@@H]2O[C@H](CO)[C@@H](O)[C@H](O)[C@H]2O)[C@@H](O)[C@H](O)[C@H]1O[C@@H]1O[C@H](CO)[C@@H](O)[C@H](O)[C@H]1O)C(C)(C)O)[C@H]1CC[C@@]2(C)[C@@H]3C(O)C=C4[C@@H](CC[C@H](O[C@@H]5O[C@H](CO[C@@H]6O[C@H](CO)[C@@H](O)[C@H](O)[C@H]6O)[C@@H](O)[C@H](O)[C@H]5O)C4(C)C)[C@]3(C)[C@H](O)C[C@]12C` (stereo partly drawn) [Compound 4a, (1S,4R,9beta,11alpha,24R)-1-{[6-O-(beta-D-glucopyranosyl)-beta-D-glucopyranosyl]oxy}-7,11,25-trihydroxy-9,10,14-trimethyl-4,9-cyclo-9,10-secocholest-5-en-24-yl beta-D-glucopyranosyl-(1→2)-[beta-D-glucopyranosyl-(1→6)]-beta-D-glucopyranoside]: the “sweetness relative to sucrose” value is recorded as 30-60 times sweeter than sucrose. Besides, the taste perceived result under setting [2] is “weak sweet taste”.

Take `C[C@H](CC[C@@H](O[C@@H]1O[C@H](CO[C@@H]2O[C@H](CO)[C@@H](O)[C@H](O)[C@H]2O)[C@@H](O)[C@H](O)[C@H]1O[C@@H]1O[C@H](CO)[C@@H](O)[C@H](O)[C@H]1O)C(C)(C)O)[C@H]1CC[C@@]2(C)[C@@H]3CC=C4[C@@H](CC[C@H](O[C@@H]5O[C@H](CO[C@@H]6O[C@H](CO)[C@@H](O)[C@H](O)[C@H]6O)[C@@H](O)[C@H](O)[C@H]5O)C4(C)C)[C@]3(C=O)C(=O)C[C@]12C` [Compound 6a, (1S,4R,9beta,24R)-9-formyl-1-{[6-O-(beta-D-glucopyranosyl)-beta-D-glucopyranosyl]oxy}-25-hydroxy-10,14-dimethyl-11-oxo-4,9-cyclo-9,10-secocholest-5-en-24-yl beta-D-glucopyranosyl-(1→2)-[beta-D-glucopyranosyl-(1→6)]-beta-D-glucopyranoside]: the “sweetness relative to sucrose” value was 100-200 times sweeter than sucrose. Under setting [2], the taste perceived entry is “strong sweet taste”.

In the case of `CC(C)(O)[C@@H](CC[C@](C)(O)[C@H]1CC[C@@]2(C)[C@@H]3CC=C4[C@@H](CC[C@H](O[C@@H]5O[C@H](CO[C@@H]6O[C@H](CO)[C@@H](O)[C@H](O)[C@H]6O)[C@@H](O)[C@H](O)[C@H]5O)C4(C)C)[C@]3(C)[C@H](O)C[C@]12C)O[C@@H]1O[C@H](CO[C@@H]2O[C@H](CO)[C@@H](O)[C@H](O)[C@H]2O)[C@@H](O)[C@H](O)[C@H]1O[C@@H]1O[C@H](CO)[C@@H](O)[C@H](O)[C@H]1O` [Compound 7a, (1S,4R,9beta,11alpha,24R)-1-{[6-O-(beta-D-glucopyranosyl)-beta-D-glucopyranosyl]oxy}-11,20,25-trihydroxy-9,10,14-trimethyl-4,9-cyclo-9,10-secocholest-5-en-24-yl beta-D-glucopyranosyl-(1→2)-[beta-D-glucopyranosyl-(1→6)]-beta-D-glucopyranoside], the taste perceived entry under setting [1] was “No taste”.

For `CC(C)(O)[C@@H](CC[C@](C)(O)[C@H]1CC[C@@]2(C)[C@@H]3CC=C4[C@@H](CC[C@H](O[C@@H]5O[C@H](CO)[C@@H](O)[C@H](O)[C@H]5O)C4(C)C)[C@]3(C)C(=O)C[C@]12C)O[C@@H]1O[C@H](CO[C@@H]2O[C@H](CO)[C@@H](O)[C@H](O)[C@H]2O)[C@@H](O)[C@H](O)[C@H]1O` [Compound 8a, (1S,4R,9beta,24R)-1-(beta-D-glucopyranosyloxy)-20,25-dihydroxy-9,10,14-trimethyl-11-oxo-4,9-cyclo-9,10-secocholest-5-en-24-yl 6-O-beta-D-glucopyranosyl-beta-D-glucopyranoside], under setting [1], the taste perceived result was “No taste”.

Source of the values: US12227539B2, “Mogroside compounds and uses thereof” (Firmenich SA, priority 2019, dated 2025).
